From patent publication US6281354A, “Analogs of duocarmycin and cc-1065” (The Scripps Research Institute, priority 1999, dated 2001)

Columns and labels:
[1] = test system: w794 DNA; assay: Rate of DNA alkylation at the single w794 high affinity site: pH and buffer dependence; type: biochemical, SV40; conditions: for change in rate of DNA alkylation over 2 pH units: 10 mM phosphate buffer, pH 6.0-8.1; for slope of plot of pH versus log κobs: pH 6-7; for pH dependence of the rate of DNA alkylation: pH 7-8
Method: Rate of DNA Alkylation: pH Dependence. […] Because this was conducted using w794 DNA additionally containing >7000 base-pairs and multiple binding sites within the unlabeled portion of the DNA, the comparisons were conducted at concentrations that provide saturated binding and restrict the kinetic analysis to the pseudo-first order rate constant for alkylation. […] The relative lack of dependence on the acid concentration (pH) especially in the most relevant pH range of 7-8 in conjunction with the observations made in the accompanying paper has led us to propose an alternative source of reaction catalysis.
Relative Rates of DNA Alkylation for (+)-1 at pH 6-8. Eppendorf tubes containing 5' end-labeled w794 DNA (9 μL) in phosphate buffer (10 mM) at pH 6.0, 6.6, 7.1, 7.6, and 8.1 were prepared. The solutions at each pH were treated with (+)-duocarmycin SA (1μL, 10^-6 M in DMSO), mixed and incubated at 25° C. for 0.5, 1.0, 1.5, 2.0 and 3.0 h. […] The reactions were stopped at each time interval by EtOH precipitation of the DNA. The alkylated DNA was resuspended in TE buffer (10 μL, pH 7.5) and heated at 100° C. for 30 min follwed by PAGE and autoradiography as detailed above.
Since these observations sharply contrast the proposed important role of acid catalysis for activation of the agents toward DNA alkylation which has served as the basis for one prominent proposal for the origin of the DNA alkylation selectivity, we have examined in detail the pH dependence of the rate of DNA alkylation for duocarmycin SA (1) and CCBI-TMI over a physiologically relevant range. […] Between pH 6-7, the slope of the plot of pH versus log κobs was 0.2-0.3, far lower than that of 1.0 required of a first-order dependence on acid concentration.

[2] = Chemical/aqueous solvolysis reactivity followed by UV; type: physicochemical
From the text: The solvolysis reactivities of N--BOC-CNA (78) and CNA (79) were followed spectrophotometrically by UV at both pH 3 (50% CH3 OH-buffer, buffer=4:1:20 v/v/v 0.1 M citric acid, 0.2 M Na2 HPO4, H2 O) and pH 7 (50% CH3 OH--H2 O). […] Particularly informative are comparisons of the benzo series of agents that differ only in the C-ring size (i.e., 76-79). Solvolysis reactivity smoothly increases through the series CBI<CBQ<CNA with both the N--BOC derivatives and the free NH derivatives.
Aqueous Solvolysis of N--BOC-CNA (78) and CNA (79). Samples of 78 (150 μg) and 79 (150 [g) were dissolved in CH3 OH (1.5 mL) and the resulting solutions were mixed with aqueous buffer (pH 3, 1.5 mL, 4:1:20 (v:v:v) 0.1 M citric acid, 0.2 M Na2 HPO4, and deionized H2 O respectively). Similarly, a solution of 78 (150 μg) in CH3 OH (1.5 mL) was mixed with deionized H2 O (pH 7, 1.5 mL). The UV spectra of the solutions were measured immediately after mixing with the appropriate aqueous solution. The blank and the solvolysis reaction solutions were stoppered, protected from light, and allowed to stand at 25° C. The total reaction times reflect those required to observe no further change in absorbance. For the solvolysis of 78 at pH 3, the UV spectrum was taken every 30 s for 10 min and then every 3 min for the next 40 min. The decrease of the absorbance at 319 nm was monitored. […] For the solvolysis of 78 at pH 7, the UV spectrum was monitored every 5 min for 19 h. […] For the solvolysis of 79 at pH 3, the UV spectrum was monitored every 2 min for the first 110 min and then every 10 min for the next 4 h. The decrease in the absorbance at 345 nm was recorded.

[3] = Calculated rate constant for acid-catalyzed solvolysis; type: physicochemical
[4] = test system: duplex DNA (w794, w836, c988, c820, c1346); type: biochemical, SV40
[5] = test system: DNA; conditions: cited from earlier work
[6] = test system: w794 DNA; assay: DNA alkylation (thermal strand cleavage, PAGE) within w794 DNA; type: biochemical, SV40
[7] = test system: w794 DNA; conditions: pH 7.5, earlier studies; cited from earlier work
[8] = test system: w794 DNA; assay: Relative rates of DNA alkylation for (+)-1, 53 and 54 at the w794 5'-AATTA site; type: biochemical, SV40
Method: Modifications in the Trimethoxyindole Subunit: Role of the Methoxy Substituents. DNA alkylation by the natural enantiomers of 53-56 were compared with that of 1 in w794 DNA.
Relative Rates of DNA Alkylation for (+)-1, 53, and 54. Following the procedure detailed above, Eppendorf tubes containing 5' end-labeled w794 DNA (9 μL) in TE buffer (pH 7.5) were treated with (+)-duocarmnycin SA, 53, or 54 (1 μL, 10^-5 M in DMSO). […] The solutions were mixed and incubated at 25° C. for 1, 3, 6, 12, 24, 48, and 72 h, respectively. Subsequent isolation of the alkylated DNA by EtOH precipitation, resuspension in TE buffer (10 μL, pH 7.5), thermolysis (30 min, 100° C.), concurrent PAGE, and autoradiography were conducted as detailed above. The relative rate for the alkylation at the 5'-AATTA site was derived from the slopes of the plots of percent integrated optical density (IOD) of the high affinity alkylation site cleavage bands versus time.

[9] = test system: w836 DNA; assay: DNA alkylation sites and relative rates within the six-base A sequence (5'-AAAAAA) of w836 DNA; type: biochemical, SV40; conditions: 5'-AAAAAA
[10] = In vitro cytotoxic activity
[11] = 10^-6 M, 25° C., pH 7.6, 10 mM phosphate
[12] = 10^-5 M, 25° C., 1-72 h, 5'-d(AATTA)

In the case of `COc1c(O)c2c(c3cc(C(=O)N4CCc5c4c(O)c(OC)c4[nH]c(C(=O)N6C[C@H]7C[C@@]78C6=CC(=O)c6[nH]cc(C)c68)cc54)[nH]c13)CCN2C(N)=O` [(+)-CC-1065, reference compound], the “pseudo first-order rate constant for DNA alkylation, pH 7.6 (unit not given)” value [1, 11] is reported as 3.36×10^-4, the “solvolysis reactivity/stability in words or rank order” value [2] is reported as “remarkable stability of 1-3 even at pH 5” and the “calculated first-order rate constant for acid-catalyzed solvolysis, pH 7.6” value [3] is reported as 2.5×10^-11 s^-1. The “AT-rich adenine N3 alkylation selectivity (size of site)” value [4] was 5 base-pair, the “adenine N3 adduct formation (addition to least substituted cyclopropane carbon)” value (“adenine N3 adduct formation” below) [5] was > 85% and the “high affinity alkylation site in w794 DNA” value [6] was 5'-AATTA.
In the case of `COc1cc2cc(C(=O)N3C[C@H]4C[C@@]45C3=CC(=O)c3ccc(C#N)cc35)[nH]c2c(OC)c1OC` [CCBI-TMI], the “change in rate of DNA alkylation over 2 pH units” value (shortened to “change in rate of DNA alkylation”) ([1]; 10^-6 M, 25° C.) is reported as < 3 ×, the “effect of EDTA on the rate of DNA alkylation” value ([1]; Tris or phosphate buffer) is reported as “had or no effect” and the “slope of plot of pH versus log κobs” value [1] is reported as 0.2-0.3. For the same compound, the “pH dependence of the rate of DNA alkylation” value (from here on “pH dependence”) [1] was “the rate dependence on pH essentially disappeared”, the “faster alkylation of w794 high affinity site than (+)-1” value ([1]; throughout the pH range) was 1.9-2.5 × and the “relative rate of DNA alkylation at w794 high affinity site” value [7] was 2.5 ×.
In the case of `COC(=O)C1(C)NC2=C(C1=O)[C@@]13C[C@@H]1CN(C(=O)c1cc4cc(OC)c(OC)c(OC)c4[nH]1)C3=CC2=O` (stereo partly drawn) [duocarmycin A], the “solvolysis reactivity/stability in words or rank order” value [2] is listed as “remarkable stability of 1-3 even at pH 5” and the “adenine N3 adduct formation” value [5] is listed as 86-92%.
In the case of `COC(=O)c1cc2c([nH]1)C(=O)C=C1N(C(=O)c3cc4cc(OC)c(OC)c(OC)c4[nH]3)CC3CC123` (stereo not drawn) [duocarmycin SA], the “concentration dependence of the rate of DNA alkylation (pH study)” value ([1]; 10^-4 -10^-6 M) is reported as “independent of agent concentration”, the “change in rate of DNA alkylation” value ([1]; 10^-6 M, 25° C.) is reported as < 2 × and the “change in rate of DNA alkylation” value ([1]; 10^-6 M, 25° C., listed as (+)-duocarmycin SA (1)) is reported as < 3 ×. The “pseudo-first order rate constant for DNA alkylation, pH 7.1” value ([1]; 10^-6 M, 25° C., pH 7.1, 5'-AATTA) was 1.69×10^-4 s^-1, the “pseudo first-order rate constant for DNA alkylation, pH 7.6” value [1, 11] was 1.58×10^-4 s^-1 and the “slope of plot of pH versus log κobs” value [1] was 0.2-0.3. The “pH dependence” value [1] was “essentially no dependence”, the “pH dependence” value ([1]; listed as (+)-duocarmycin SA) was “the rate dependence on pH essentially disappeared” and the “pH dependence” value ([1]; listed as (+)-duocarmycin SA (1)) was “the rate dependence on pH essentially disappeared”. For the same compound, the “t1/2 of DNA alkylation” value ([1]; pH 7 / 7.1) was 1.1 h, the “t1/2 of DNA alkylation, pH 7.6” value ([1]; pH 7.6) was 1.2 h and the “relative rate of DNA alkylation at w794 high affinity site” value [7] was 0.9 ×. The “concentration dependence of the rate of DNA alkylation” value ([8]; 10^-4 -10^-6 M) was “independent of agent concentration”, the “relative rate of DNA alkylation κrel versus 53” value [8, 12] was 18-33 and the “relative rate of DNA alkylation κrel, 1 versus 54” value [8, 12] was 1.3-2.3. For the same compound, the “AT-rich binding site covered in w836 DNA” value [9] was 3.5 base-pair, the “alkylated adenines within six-base A-rich sequence of w836 DNA” value [9] was “each of the four 3' adenines” and the “calculated rate constant for acid-catalyzed solvolysis, pH 7” value ([3]; pH 7) was 1.08×10^-10 s^-1. For the same compound, the “calculated first-order rate constant for acid-catalyzed solvolysis, pH 7.6” value [3] was 2.7×10^-11 s^-1, the “cytotoxic / antitumor activity in words” value [10] was “biologically the most potent” and the “AT-rich adenine N3 alkylation selectivity (size of site)” value [4] was 3.5 base-pair. For the same compound, the “adenine N3 adduct formation” value [5] was 95-100%.
